Source: ChEMBL document CHEMBL1201862, “PubChem BioAssay data set” (2004)
Calls of active or inactive are those of the source.

Legend:
Cytochrome P450 3A4 = Cytochrome P450 3A4 (Homo sapiens, UniProt P08684); settings: Potency;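 further: confirmatory qHTS run detecting inhibitors and substrates of CYP3A4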
HEK293 [1] = test: NOD1 signaling inhibitors, primary screen, cell-based, luminescence, uHTS (AID 1578); assay type: functional; settings: Homo sapiens
HEK293 [2] = test: cells; assay type: functional, cell-based; settings: Homo sapiens
HEK293 [3] = test: NOD2 signaling inhibitors in MDP-stimulated cells, cell-based, uHTS, luminescence (AID 2001); assay type: functional; settings: Homo sapiens
HEK293 [4] = test: cells; assay type: functional, cell-based; settings: Homo sapiens; remark: listed apart in the source
[5] = target: Nucleotide-binding oligomerization domain-containing protein 2 (Homo sapiens, UniProt Q9HC29); test: NOD2 signaling inhibitors, cell-based, luminescence, uHTS, HEK293 (AID 1566); assay type: functional
HEK293 [6] = test: cells; assay type: functional, cell-based; settings: Homo sapiens; remark: listed apart in the source
[7] = cytotoxicity in HEK-293T cells, dose response, cytotoxicity control for BCR NF-kB inhibitor project, luminescence, B-cell screen hits (AID 489021); assay type: functional, cell-based;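 further: HEK-293T cells carrying an NF-kB luciferase reporter; cells exposed to compound for about 14 hours before viability readout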
[8] = target: T1, Voltage-gated N-type calcium channel alpha-1B subunit/Amyloid beta A4 precursor protein-binding family A member 1 (Homo sapiens, UniProt Q00975+Q02410); assay type: protein assay
[9] = target: T2, Rac GTPase-activating protein 1 (Homo sapiens, UniProt Q9H0H5); test: MgcRacGAP GTPase-activating activity inhibitors, confirmation, biochemical, ADP Hunter fluorescence, primary and confirmatory (AID 624330); assay type: functional
T2 sequence (Q9H0H5 whole entry): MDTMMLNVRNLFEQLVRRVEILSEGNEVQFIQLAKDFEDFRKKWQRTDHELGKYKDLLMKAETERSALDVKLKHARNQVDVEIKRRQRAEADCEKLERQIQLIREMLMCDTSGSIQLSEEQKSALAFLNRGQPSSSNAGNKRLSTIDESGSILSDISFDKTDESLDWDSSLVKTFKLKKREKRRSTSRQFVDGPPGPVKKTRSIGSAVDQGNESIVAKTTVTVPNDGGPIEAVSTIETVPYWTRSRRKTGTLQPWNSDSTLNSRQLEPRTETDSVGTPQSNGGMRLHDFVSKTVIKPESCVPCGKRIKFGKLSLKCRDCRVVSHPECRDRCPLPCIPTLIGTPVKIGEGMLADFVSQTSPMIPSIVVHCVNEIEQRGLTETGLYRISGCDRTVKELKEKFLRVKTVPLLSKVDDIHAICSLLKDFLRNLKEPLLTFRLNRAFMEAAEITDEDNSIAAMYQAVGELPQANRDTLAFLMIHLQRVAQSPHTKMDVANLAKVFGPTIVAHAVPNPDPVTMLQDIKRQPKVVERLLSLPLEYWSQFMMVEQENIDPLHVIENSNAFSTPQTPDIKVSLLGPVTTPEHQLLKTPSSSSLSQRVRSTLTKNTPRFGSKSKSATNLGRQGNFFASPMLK

Genome polyprotein = Genome polyprotein (dengue virus type 2, UniProt P29990); test: Dengue-2 NS5 methyltransferase inhibitors, primary screen, biochemical, confirmation dose response (AID 588689); assay type: functional
[10] = target: T1, Voltage-gated N-type calcium channel alpha-1B subunit/Amyloid beta A4 precursor protein-binding family A member 1; assay type: protein assay; remark: listed apart in the source
[11] = target: T3, Microphthalmia-associated transcription factor (Homo sapiens, UniProt O75030); test: TRPM1 promoter luciferase signal decrease, dose response, MITF inhibitor project, cell-based, SK-MEL-5, cherry-picked, set 3 (AID 493073); assay type: functional
T3 sequence (O75030 whole entry): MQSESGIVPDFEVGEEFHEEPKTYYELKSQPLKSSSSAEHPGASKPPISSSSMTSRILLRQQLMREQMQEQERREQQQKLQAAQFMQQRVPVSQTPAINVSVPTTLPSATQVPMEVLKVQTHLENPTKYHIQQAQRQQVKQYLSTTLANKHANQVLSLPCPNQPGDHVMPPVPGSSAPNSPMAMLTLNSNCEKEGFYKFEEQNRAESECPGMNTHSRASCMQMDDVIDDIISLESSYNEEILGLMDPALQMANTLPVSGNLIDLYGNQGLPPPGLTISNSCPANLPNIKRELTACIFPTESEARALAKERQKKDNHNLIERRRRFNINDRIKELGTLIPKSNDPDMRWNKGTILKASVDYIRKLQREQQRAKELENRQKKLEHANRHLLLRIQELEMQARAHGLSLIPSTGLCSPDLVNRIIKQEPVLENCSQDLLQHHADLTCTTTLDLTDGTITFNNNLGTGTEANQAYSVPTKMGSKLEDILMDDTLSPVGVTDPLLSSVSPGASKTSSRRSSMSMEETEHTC

[12] = target: T4, Ubiquitin-conjugating enzyme E2 N (Homo sapiens, UniProt P61088); assay type: functional;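 further: Dose-response confirmation in a TR-FRET assay detecting UBC13-driven polyubiquitin chain formation, inhibition measured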
T4 sequence (P61088 whole entry): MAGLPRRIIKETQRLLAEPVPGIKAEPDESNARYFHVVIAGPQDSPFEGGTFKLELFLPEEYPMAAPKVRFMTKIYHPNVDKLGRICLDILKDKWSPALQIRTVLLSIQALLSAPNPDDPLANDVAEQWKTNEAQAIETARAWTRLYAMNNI

Leucine aminopeptidase = target: T5, Leucine aminopeptidase (Plasmodium falciparum 3D7, UniProt Q8IL11); test: P. falciparum M17LAP inhibitors, primary screen, biochemical, fluorogenic H-Leu-NHMec substrate, 1536-well (AID 1619); assay type: functional
T5 sequence (Q8IL11 whole entry): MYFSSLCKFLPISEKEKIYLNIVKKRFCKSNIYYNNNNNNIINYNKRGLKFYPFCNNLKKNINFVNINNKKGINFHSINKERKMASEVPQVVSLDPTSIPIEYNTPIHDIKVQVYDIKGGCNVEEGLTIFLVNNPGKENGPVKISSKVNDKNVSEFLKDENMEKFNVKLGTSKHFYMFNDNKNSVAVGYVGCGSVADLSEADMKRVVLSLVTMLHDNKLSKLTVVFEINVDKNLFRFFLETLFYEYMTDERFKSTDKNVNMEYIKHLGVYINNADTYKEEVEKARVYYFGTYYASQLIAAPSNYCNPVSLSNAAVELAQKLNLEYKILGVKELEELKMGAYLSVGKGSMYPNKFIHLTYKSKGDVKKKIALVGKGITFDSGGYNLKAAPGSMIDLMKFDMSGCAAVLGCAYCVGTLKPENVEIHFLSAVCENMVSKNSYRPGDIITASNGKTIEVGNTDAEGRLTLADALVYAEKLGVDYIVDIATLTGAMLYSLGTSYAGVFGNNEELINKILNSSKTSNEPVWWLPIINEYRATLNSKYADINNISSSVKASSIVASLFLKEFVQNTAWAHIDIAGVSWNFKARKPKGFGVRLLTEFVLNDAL

[13] = target: T6, Replicative DNA helicase DnaB (Mycobacterium tuberculosis, UniProt P9WMR3); test: DnaB intein splicing inhibitors, dose response, biochemical, cell-free fluorescence (AID 449749); assay type: functional
T6 sequence (P9WMR3 whole entry): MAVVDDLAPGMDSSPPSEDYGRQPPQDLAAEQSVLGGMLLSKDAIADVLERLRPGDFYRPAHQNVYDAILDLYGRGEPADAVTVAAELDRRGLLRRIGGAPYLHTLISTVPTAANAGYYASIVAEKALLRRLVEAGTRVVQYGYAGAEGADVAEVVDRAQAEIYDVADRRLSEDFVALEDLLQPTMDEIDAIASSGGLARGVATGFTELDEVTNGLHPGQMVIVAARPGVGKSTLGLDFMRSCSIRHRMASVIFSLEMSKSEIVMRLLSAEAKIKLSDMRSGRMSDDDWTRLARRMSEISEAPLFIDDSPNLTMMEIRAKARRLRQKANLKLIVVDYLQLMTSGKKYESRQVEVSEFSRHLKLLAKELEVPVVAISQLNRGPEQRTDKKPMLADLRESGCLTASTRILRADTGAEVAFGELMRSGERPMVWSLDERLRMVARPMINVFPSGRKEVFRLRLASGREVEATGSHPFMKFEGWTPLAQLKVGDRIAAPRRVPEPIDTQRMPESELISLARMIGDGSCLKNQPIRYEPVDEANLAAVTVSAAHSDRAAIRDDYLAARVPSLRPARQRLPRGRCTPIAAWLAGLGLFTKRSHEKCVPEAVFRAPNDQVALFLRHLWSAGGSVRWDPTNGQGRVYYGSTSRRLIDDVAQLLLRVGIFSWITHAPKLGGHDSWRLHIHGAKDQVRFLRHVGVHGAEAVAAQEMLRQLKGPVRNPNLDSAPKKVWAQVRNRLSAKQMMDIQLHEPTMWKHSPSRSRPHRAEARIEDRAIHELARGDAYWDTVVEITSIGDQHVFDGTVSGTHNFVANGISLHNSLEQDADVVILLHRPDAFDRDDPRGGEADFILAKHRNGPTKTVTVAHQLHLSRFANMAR

Protein RecA = target: T7, Protein RecA (Mycobacterium tuberculosis, UniProt P9WHJ3); test: Fluorescence Cell-Free Homogeneous Dose Retest to Identify Inhibitors of RecA-Intein Splicing Activity. [Related pubchem assays (depositor defined):AID2097, AID2223, AID489010, AID492950]; assay type: functional
T7 sequence (P9WHJ3 whole entry): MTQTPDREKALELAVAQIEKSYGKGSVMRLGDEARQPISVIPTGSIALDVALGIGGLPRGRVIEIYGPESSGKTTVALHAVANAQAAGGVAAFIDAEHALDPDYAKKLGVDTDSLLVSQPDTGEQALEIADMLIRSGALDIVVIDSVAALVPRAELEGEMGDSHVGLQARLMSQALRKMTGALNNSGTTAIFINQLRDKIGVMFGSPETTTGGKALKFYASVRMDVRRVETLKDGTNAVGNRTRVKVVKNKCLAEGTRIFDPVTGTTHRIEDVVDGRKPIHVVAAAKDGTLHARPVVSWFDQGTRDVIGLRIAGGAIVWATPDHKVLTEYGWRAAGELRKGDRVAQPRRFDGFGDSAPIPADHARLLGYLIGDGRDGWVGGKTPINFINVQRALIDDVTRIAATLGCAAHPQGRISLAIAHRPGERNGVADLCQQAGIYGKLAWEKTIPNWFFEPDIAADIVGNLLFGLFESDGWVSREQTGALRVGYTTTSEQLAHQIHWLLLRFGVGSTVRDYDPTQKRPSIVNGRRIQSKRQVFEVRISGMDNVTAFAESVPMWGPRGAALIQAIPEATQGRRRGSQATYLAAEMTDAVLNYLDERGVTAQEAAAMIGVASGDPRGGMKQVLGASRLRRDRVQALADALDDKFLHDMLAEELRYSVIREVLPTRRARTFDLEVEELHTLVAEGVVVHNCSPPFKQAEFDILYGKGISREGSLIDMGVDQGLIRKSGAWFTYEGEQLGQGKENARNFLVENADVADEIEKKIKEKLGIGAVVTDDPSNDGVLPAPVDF

[14] = inhibitors of Vif binding to APOBEC3G peptide, primary screen, biochemical, TR-FRET, GST-Vif 1-94, biotin-A3G peptide, dose response retest (AID 1117319); assay type: functional;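 further: TR-FRET signal of purified GST-Vif binding a biotinylated A3G peptide; inhibitors lower the FRET signal by blocking Vif and A3G binding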

Chain of Nucleotide-binding oligomerization domain-containing protein 2 (Q9HC29 whole entry, the tested form may be a part): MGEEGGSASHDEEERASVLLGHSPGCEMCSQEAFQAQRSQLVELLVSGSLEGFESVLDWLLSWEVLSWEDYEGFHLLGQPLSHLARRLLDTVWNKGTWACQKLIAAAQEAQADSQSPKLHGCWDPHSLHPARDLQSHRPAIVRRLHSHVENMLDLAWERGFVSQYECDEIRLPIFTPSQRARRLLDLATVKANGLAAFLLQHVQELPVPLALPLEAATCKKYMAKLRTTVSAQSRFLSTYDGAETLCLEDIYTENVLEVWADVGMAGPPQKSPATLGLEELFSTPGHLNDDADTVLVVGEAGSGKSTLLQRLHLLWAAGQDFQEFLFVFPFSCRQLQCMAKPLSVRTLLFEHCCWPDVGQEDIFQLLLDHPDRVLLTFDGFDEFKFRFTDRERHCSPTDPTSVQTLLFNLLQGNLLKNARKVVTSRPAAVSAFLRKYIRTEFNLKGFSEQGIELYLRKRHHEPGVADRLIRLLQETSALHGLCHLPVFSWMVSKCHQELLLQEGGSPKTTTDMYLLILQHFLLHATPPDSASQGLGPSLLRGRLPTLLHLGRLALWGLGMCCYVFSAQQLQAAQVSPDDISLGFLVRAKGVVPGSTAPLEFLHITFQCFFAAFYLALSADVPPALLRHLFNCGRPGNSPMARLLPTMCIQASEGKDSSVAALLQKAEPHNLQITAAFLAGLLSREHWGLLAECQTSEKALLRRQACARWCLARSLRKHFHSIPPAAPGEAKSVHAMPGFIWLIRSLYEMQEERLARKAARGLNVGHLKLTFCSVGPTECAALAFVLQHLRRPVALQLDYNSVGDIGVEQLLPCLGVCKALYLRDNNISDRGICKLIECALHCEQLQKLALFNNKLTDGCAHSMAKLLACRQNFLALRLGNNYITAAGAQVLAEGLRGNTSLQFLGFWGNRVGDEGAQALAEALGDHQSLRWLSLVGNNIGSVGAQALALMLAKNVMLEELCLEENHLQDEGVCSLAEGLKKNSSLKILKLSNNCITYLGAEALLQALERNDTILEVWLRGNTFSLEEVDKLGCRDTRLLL
T1 sequence (Q00975 whole entry): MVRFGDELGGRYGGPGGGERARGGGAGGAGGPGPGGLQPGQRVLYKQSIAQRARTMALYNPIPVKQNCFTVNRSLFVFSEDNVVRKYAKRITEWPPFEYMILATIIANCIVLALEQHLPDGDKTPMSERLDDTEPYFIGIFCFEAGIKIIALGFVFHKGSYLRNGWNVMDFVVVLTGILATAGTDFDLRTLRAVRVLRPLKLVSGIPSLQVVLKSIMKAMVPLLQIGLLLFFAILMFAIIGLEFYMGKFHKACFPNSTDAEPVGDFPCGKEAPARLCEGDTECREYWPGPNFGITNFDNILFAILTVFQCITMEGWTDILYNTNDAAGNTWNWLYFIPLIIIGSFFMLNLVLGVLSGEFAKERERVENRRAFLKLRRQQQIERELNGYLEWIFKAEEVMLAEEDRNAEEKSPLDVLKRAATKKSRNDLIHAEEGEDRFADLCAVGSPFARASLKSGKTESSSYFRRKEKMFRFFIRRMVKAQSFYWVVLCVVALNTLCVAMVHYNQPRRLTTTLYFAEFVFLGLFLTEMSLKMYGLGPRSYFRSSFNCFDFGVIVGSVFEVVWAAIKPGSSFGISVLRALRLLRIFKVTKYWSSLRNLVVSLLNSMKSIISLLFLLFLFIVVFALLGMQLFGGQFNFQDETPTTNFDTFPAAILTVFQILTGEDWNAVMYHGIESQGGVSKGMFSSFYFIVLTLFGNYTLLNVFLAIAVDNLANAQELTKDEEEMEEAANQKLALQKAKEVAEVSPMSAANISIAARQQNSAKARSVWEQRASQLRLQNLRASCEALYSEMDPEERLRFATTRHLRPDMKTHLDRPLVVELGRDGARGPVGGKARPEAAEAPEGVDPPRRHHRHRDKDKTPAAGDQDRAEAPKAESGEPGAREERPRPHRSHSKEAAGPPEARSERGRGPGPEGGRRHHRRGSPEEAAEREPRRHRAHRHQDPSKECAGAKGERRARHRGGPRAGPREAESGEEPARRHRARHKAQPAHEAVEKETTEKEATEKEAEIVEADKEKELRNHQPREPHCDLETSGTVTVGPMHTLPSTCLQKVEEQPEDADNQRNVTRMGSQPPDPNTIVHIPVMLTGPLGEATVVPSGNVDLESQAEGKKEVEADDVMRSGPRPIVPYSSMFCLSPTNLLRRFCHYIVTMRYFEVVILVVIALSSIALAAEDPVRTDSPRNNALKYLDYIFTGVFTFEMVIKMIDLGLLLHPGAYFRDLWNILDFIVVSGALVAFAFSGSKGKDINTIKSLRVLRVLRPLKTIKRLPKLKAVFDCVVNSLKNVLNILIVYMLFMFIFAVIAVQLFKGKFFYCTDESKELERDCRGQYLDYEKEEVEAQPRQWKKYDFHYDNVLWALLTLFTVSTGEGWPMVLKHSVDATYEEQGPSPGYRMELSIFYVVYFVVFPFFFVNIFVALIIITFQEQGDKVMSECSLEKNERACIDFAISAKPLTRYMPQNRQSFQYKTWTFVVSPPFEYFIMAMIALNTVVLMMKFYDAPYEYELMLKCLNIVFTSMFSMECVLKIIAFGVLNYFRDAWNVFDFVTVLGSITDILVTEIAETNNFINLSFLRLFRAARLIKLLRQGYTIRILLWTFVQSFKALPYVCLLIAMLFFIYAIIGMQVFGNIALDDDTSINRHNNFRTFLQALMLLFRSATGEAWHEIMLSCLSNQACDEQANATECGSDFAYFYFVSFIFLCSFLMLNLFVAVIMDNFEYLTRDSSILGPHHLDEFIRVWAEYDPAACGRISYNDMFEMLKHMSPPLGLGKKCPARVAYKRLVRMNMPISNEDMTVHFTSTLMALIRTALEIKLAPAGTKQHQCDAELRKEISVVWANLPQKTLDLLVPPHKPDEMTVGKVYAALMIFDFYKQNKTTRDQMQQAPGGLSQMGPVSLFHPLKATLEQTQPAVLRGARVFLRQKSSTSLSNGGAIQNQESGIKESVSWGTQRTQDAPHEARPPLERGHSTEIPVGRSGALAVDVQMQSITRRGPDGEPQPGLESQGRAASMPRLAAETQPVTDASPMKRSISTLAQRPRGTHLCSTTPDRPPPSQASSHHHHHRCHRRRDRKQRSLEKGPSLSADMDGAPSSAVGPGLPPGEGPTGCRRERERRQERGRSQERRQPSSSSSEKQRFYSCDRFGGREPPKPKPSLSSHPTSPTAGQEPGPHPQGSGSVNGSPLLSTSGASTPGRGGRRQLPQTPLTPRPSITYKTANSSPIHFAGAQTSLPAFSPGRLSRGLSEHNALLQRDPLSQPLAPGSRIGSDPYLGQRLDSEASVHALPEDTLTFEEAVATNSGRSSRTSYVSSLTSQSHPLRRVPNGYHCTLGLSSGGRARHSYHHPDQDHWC
T1 sequence (Q02410 whole entry): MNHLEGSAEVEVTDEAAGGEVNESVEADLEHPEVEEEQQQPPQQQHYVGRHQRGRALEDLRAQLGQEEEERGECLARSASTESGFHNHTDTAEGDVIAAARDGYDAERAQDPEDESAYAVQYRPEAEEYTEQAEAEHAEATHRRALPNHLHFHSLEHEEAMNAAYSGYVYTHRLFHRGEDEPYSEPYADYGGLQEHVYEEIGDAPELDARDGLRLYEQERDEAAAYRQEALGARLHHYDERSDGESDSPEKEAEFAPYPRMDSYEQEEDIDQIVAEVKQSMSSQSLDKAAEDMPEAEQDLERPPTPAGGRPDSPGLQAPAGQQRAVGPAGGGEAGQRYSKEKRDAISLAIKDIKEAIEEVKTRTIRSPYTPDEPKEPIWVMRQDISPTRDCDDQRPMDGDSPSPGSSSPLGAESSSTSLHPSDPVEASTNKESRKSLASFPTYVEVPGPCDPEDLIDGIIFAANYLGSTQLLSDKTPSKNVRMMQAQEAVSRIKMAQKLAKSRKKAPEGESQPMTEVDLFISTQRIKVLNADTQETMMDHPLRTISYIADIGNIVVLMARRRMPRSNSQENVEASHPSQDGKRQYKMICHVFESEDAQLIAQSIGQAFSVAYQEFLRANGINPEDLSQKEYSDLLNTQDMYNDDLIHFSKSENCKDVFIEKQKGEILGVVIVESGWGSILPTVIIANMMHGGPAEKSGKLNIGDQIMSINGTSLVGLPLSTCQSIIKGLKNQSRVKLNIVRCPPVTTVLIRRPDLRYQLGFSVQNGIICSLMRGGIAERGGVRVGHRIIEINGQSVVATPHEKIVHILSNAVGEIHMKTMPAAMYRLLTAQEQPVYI
Chain of Cytochrome P450 3A4 (P08684 whole entry): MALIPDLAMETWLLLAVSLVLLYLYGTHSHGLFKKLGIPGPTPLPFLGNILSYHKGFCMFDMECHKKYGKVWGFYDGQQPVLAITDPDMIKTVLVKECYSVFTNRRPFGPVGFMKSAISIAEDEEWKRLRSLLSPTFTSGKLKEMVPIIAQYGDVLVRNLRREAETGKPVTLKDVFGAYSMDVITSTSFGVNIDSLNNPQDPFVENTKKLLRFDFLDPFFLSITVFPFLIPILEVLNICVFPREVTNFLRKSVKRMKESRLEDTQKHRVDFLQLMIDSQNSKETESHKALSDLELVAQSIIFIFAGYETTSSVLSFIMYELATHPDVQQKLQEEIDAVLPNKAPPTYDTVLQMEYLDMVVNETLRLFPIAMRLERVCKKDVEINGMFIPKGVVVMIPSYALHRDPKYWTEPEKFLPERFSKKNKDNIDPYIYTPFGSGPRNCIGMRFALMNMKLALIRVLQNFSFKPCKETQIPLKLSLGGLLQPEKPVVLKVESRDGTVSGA

CCOC(=O)[C@]1(C(NC(=O)OC)c2ccccc2)CCCC1=O (stereo not given in full)
AC50 (Cytochrome P450 3A4): 2.51 µM (inconclusive)

COc1ccc(C)cc1NC(=O)c1sc2ncnc(N3CCN(c4ccccn4)CC3)c2c1C
EC50 (HEK293 [1]): > 20 µM (inactive)
IC50 (HEK293 [2]): > 20 µM (inactive)
IC50 (HEK293 [3]): > 20 µM (inactive)
IC50 (HEK293 [4]): > 20 µM (inactive)
EC50 [5]: > 20 µM (inactive)
IC50 (HEK293 [6]): > 20 µM (inactive)

CCn1c(S)nc2cc(S(=O)(=O)N3CCCCC3)ccc21
IC50 [7]: > 80 µM (inactive)

COC(=O)c1cccc(C23CC4(C2)[C@H](CN(CC2CCCCC2)[C@@H]4c2ccccc2)C3c2ccc(C(F)(F)F)cc2)c1 (stereo not given in full)
AC50 (Cytochrome P450 3A4): 15.8 µM (inconclusive)

FC(F)(F)c1ccc(C2[C@H]3CN(Cc4ccc(-c5ccccc5)cc4)[C@H](c4ccccc4)C34CC2(c2cccnc2)C4)cc1 (stereo not given in full)
AC50 (Cytochrome P450 3A4): 15.8 µM (inconclusive)

NNc1cc([N+](=O)[O-])cc2c1c(=O)n(Cc1ccccc1)[s+]2[O-] (stereo not given)
IC50 [8]: > 50 µM (inactive)
IC50 [9]: 52.3 µM (active)
IC50 (Genome polyprotein): 63.4 µM (active)
IC50 [10]: 10.3 µM (active)

COc1ccc(/C=C2\SC(=S)N(CCCC(=O)NNC(=O)c3ccccc3O)C2=O)cc1
EC50 (HEK293 [1]): 8.29 µM (active)
IC50 (HEK293 [2]): > 20 µM (inactive)
IC50 [7]: > 80 µM (inactive)
IC50 (HEK293 [3]): 5.62 µM (active)
IC50 (HEK293 [4]): > 20 µM (inactive)
EC50 [5]: > 20 µM (inactive)
IC50 (HEK293 [6]): 5.39 µM (active)
AC50 [11]: 1.38 µM (active)

Cc1sc2ncnc(N)c2c1C
IC50 [12]: > 20 µM (inactive)

Cc1ccc(NC(=O)c2cc(=O)c3ccccc3o2)cc1S(=O)(=O)N1CCCCC1
EC50 (HEK293 [1]): 8.74 µM (active)
IC50 (HEK293 [2]): > 20 µM (inactive)
IC50 (HEK293 [3]): 9.78 µM (active)
IC50 (HEK293 [4]): > 20 µM (inactive)
EC50 [5]: > 20 µM (inactive)

Cc1cc(-c2[nH]nc3c2C(c2cccc(O)c2)C(C#N)=C(N)O3)c(C)s1 (stereo not given)
IC50 (Leucine aminopeptidase): 52.8 µM (active)
AC50 [13]: 4.58 µM (active)
EC50 (Protein RecA): 2.65 µM (active)
IC50 [14]: > 100 µM (active)

CC(C)c1ccc(/C=C2\SC(=S)N(CCC(=O)N3CCCCC3CCO)C2=O)cc1 (stereo not given)
IC50 [7]: 72.4 µM (inactive)
AC50 [11]: 7.43 µM (active)

Cc1ccc(-c2nn(-c3ccccc3)cc2/C=C/C(=O)O)o1
IC50 [8]: 30.9 µM (active)
IC50 [10]: 17.6 µM (active)

COC(=O)c1c(C)cc(OC)cc1O
AC50 (Cytochrome P450 3A4): 39.8 µM (inconclusive)

CCC(=O)NC(C)c1cc(Cl)c2ccccc2c1O (stereo not given)
IC50 [12]: > 20 µM (inactive)

COc1ccnc2c1c(=O)n(Cc1ccc(F)cc1)c(=O)n2C
IC50 [12]: > 20 µM (inactive)

CCc1cccc(NC(=O)c2ccc(CNc3c(N4CCCC4)c(=O)c3=O)cc2)c1
IC50 [7]: > 80 µM (inactive)
